# Results published in US20060160851A1, “Substituted piperidine carbamates” (Novo Nordisk A/S, priority 2003, published 2006).
# Target: T1, hormone sensitive lipase (Homo sapiens, UniProt Q05469)
# T1 construct: made in house
# T1 sequence (Q05469 1-1076): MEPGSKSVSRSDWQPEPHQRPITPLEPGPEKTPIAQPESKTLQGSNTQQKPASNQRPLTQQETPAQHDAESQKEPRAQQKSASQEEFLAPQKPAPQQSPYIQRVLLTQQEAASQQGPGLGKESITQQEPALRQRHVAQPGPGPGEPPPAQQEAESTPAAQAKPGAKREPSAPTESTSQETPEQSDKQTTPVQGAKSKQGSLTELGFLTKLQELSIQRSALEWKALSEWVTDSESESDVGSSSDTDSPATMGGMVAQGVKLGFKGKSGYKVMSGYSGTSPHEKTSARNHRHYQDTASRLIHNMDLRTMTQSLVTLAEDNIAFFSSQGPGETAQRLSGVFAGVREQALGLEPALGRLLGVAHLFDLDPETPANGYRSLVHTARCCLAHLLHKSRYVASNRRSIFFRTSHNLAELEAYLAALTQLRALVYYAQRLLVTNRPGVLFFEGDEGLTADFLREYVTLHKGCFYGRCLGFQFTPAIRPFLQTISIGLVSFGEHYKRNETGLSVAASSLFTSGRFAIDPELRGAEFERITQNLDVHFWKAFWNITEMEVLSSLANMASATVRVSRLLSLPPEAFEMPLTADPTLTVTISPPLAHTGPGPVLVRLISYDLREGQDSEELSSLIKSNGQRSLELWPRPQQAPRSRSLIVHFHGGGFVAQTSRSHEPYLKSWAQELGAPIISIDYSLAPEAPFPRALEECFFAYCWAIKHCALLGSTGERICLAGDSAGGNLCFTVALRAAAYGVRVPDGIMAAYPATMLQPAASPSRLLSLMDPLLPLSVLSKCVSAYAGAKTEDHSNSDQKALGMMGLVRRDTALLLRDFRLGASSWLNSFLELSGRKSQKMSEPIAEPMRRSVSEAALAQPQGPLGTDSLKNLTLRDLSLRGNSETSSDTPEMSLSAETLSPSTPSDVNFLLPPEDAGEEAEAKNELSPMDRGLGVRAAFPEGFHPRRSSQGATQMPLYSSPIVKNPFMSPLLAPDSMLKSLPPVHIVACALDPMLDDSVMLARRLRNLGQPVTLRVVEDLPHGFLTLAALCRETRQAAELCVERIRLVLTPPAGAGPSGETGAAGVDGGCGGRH
# Experiment: Assay 3190.1: percent inhibition of hormone sensitive lipase by compound at 10 μM (fluorochrome-labeled triacylglyceride emulsion, HSL_FL)
# Format: biochemical
# Details: 10 μM sample concentration; % activity relative to non-inhibited sample (no compound); 30 min preincubation at 25° C., 120 min incubation at 37° C.
# Text: The Hormone-sensitive lipase was provided by Dr. Cecilia Holm, from Lund University Sweden or produced and purified by Novo Nordisk (NN) using the reagents and protocols used by Dr. Holm. The substrates used are: ^3H-labeled triolein (TO) from Amersham, Buckinghamshire, U.K. cat No. TRA191; 5-20 Ci/mmol dissolved in toluene, triolein (Sigma, Cat. No. T-1740), fluorochrome-labeled triacylglyceride (cis-octadec-9-enoic acid 2-[12-(7-nitrobenzo[1,2,5]oxadiazol-4-ylamino)dodecanoyloxy]-1-cis-octadec-9-enoyloxymethyl-ethyl ester) prepared by Novo Nordisk (NN) by conventional methods, and 1,3-(di[^3H]-stearin), 2-(PEG-Biotin)glycerol prepared in collaboration with Amersham Pharmacia Biotech, UK and described in WO 01/073442. Phosphatidyl choline (PC) and phosphatidyl inositol (PI) are from Sigma (St Luis Mo. cat. Nos. P-3556 and P-5954 respectively). All other reagents are of commercial grade and obtained from various commercial sources.
# 3190.1: Assay for determination of percent inhibition of hormone sensitive lipase by compound at 10 μM sample concentration.
# A lipid emulsion with fluorochrome-labeled triacylglyceride and phospholipid is used as substrate with a standard concentration of highly purified HSL (12 μg/mL initial concentration corresponding to 600 ng/mL final concentration). BSA is added as product acceptor receptor. The transfer of the fluorochrome from the lipid phase to the water (BSA) phase changes the fluorescent properties of the fluorochrome. The changes can be monitored on a fluorimeter with an excitation wavelength of 450 nm and an emission wavelength of 545 nm.
# Compound and HSL (20 μL compound, 10 μL enzyme and 70 μL PED-BSA buffer) is pre-incubated for 30 min at 25° C. before addition of substrate (100 μL). Amount of formed product is measured after 120 min incubation at 37° C.
# Results are given as percent activity relative to a non-inhibited sample (no compound).
row,Compound,Test 3190.1 HSL_FL % ACTIVITY [%]
1,4-(4-Carboxymethyl-phenoxy)-piperidine-1-carboxylic acid 4-(2-phenoxy-ethyl)-phenyl ester [Example 92],3

# Same assay, conditions: 10 μM sample concentration; % activity relative to non-inhibited sample (no compound); 30 min preincubation at 25° C., 120 min incubation at 37° C.; read-out: Test 3190.1 HSL_FL % ACTIVITY
row,Compound,activity at 10 µM [%]
1,"CC(C)(C)CCNC(=O)c1ccc(OC(=O)N2CCC(Oc3ccc(C(=O)O)cc3)CC2)cc1 [Example 105, 4-(4-Carboxy-phenoxy)-piperidine-1-carboxylic acid 4-(3,3-dimethyl-butylcarbamoyl)-phenyl ester]",11
2,"O=C(Oc1ccc(Cc2ccc(C(F)(F)F)cc2)cc1)N1CCC(Cc2ncccn2)CC1 [Example 67, 4-Pyrimidin-2-ylmethyl-piperidine-1-carboxylic acid 4-(4-trifluoromethyl-benzyl)-phenyl ester]",4
3,"O=C(O)Cc1ccc(OC2CCN(C(=O)Oc3ccc(C(=O)NCCc4ccccc4)cc3)CC2)cc1 [Example 85, 4-(4-Carboxymethyl-phenoxy)-piperidine-1-carboxylic acid 4-phenethylcarbamoyl-phenyl ester]",5

# Continued, values first:
row,activity at 10 µM [%],Compound
1,20,"O=C(O)Cc1cccc(OC2CCN(C(=O)Oc3ccc(Oc4ccc(C(F)(F)F)cn4)cc3)CC2)c1 [Example 110, 4-(3-Carboxymethyl-phenoxy)-piperidine-1-carboxylic acid 4-(5-trifluoromethyl-pyridin-2-yloxy)-phenyl ester]"
2,1,"O=C(Oc1ccc(Oc2ccc(C(F)(F)F)cn2)cc1)N1CCC(Oc2cccnc2)CC1 [Example 10, 4-(Pyridin-3-yloxy)-piperidine-1-carboxylic acid 4-(5-trifluoromethyl-pyridin-2-yloxy)-phenyl ester]"
3,10,"O=C(O)Cc1ccc(OC2CCN(C(=O)Oc3ccc(C(=O)NCCc4cccs4)cc3)CC2)cc1 [Example 91, 4-(4-Carboxymethyl-phenoxy)-piperidine-1-carboxylic acid 4-(2-thiophen-2-yl-ethylcarbamoyl)-phenyl ester]"
4,11,"O=C(O)Cc1ccc(OC2CCN(C(=O)Oc3ccc(Cc4ncc(C(F)(F)F)cc4Cl)cc3)CC2)cc1 [Example 102, 4-(4-Carboxymethyl-phenoxy)-piperidine-1-carboxylic acid 4-(3-chloro-5-trifluoromethyl-pyridin-2-ylmethyl)-phenyl ester]"
5,5,"O=C(O)c1ccc(OC2CCN(C(=O)Oc3ccc(Oc4ccc(C(F)(F)F)cn4)cc3)CC2)cc1 [Example 39, 4-(4-Carboxy-phenoxy)-piperidine-1-carboxylic acid 4-(5-trifluoromethyl-pyridin-2-yloxy)-phenyl ester]"
